What is called IC50 is the concentration that inhibits the measured activity by half. Lower therefore signals inhibition by little substance.

From BindingDB's records for doi:10.1016/0960-894X(96)00399-X (1996) come the findings set out here.

This assay concerns the target Inositol 1,4,5-trisphosphate receptor type 1 (Rattus norvegicus). Put plainly: Compound was tested for inhibition of specific [3H]Ins(1,4,5)P3 binding to Inositol 1,4,5-trisphosphate receptor in rat cerebellar membranes.

`O=P(O)(O)OC1C(O)C(CO)C(OP(=O)(O)O)C(OP(=O)(O)O)C1O` [Phosphoric acid mono-((3S,5R,6R)-3,5-dihydroxy-2-hydroxymethyl-4,6-bis-phosphonooxy-cyclohexyl) ester] displayed an IC50 of 27 nM.
